Earlier results, collected in US11026907B2, “Azelaic acid gel, preparation method and application thereof” (CHENGDU JOY YOUNG BIOTECHNOLOGY CO., LTD., priority 2018, dated 2021).
Read-outs that look alike come from different tables or passages of the source.

O=C(O)CCCCCCCC(=O)O [Azelaic acid]
Solubility (in cold water, ether and benzene): slightly soluble
Solubility (in hot water, alcohol and some polyols): soluble
